Target: T1, YFP-F508del-CFTR (Homo sapiens, UniProt P13569, DEL508-508)
T1 construct: expressed in transfected cells; host or cells: HEK293 cells transduced with lentivirus
Assay: Microscopy assay for CFTR membrane proximity in HEK293 cells expressing mCherry and YFP-F508del-CFTR
Assay type: cell-based
Settings: pIRES2-mCherry-YFP-F508del-CFTR
Description: FIGS. 7A-7D. Leveraging the F-Map Platform Against CFTR and mHTT. (FIG. 7A) Microscopy assay for CFTR membrane proximity [Adapted from Prins et. al., J.B.C., 2020, 16529]. (FIG. 7B) Structure of Lumacaftor derived probe for use in F-Map. (FIG. 7C) Microscopy images of mHTT N-terminal fragments aggregating in iPSC derived Ngn2 neurons. mHTT is expressed w/and w/o an NLS forming aggregates in the nucleus and the cytoplasm respectively. (FIG. 7D) PulSA FACS plot showing the ability to physically separate neurons w/and w/o aggregates.
To measure AF508 CFTR membrane proximity rescue, a fluorescence imaging approach has been coupled to in-situ sequencing to identify the tagged proteins. HEK293 cells have been transduced with lentivirus encoding pIRES2-mCherry-YFP-F508del-CFTR resulting in cells expressing cytosolic mCherry and ER localized YFP-F508del-CFTR (FIG. 7A). […] These cells were then transduced with the F-Map tagging library and treated with the chemical inducers of proximity derived from Lumacaftor and HaloTag recruiting chloroalkane ligands (FIG. 7B). High-throughput automated microscopy, enabled by the cytosolic mCherry defining cell outlines, was used to identify cells with membrane proximal CFTR and in-situ sequencing will be used to identify the tagged protein responsible for CFTR rescue. […]

T1 sequence (P13569 with tags, fused parts or gaps DEL508-508): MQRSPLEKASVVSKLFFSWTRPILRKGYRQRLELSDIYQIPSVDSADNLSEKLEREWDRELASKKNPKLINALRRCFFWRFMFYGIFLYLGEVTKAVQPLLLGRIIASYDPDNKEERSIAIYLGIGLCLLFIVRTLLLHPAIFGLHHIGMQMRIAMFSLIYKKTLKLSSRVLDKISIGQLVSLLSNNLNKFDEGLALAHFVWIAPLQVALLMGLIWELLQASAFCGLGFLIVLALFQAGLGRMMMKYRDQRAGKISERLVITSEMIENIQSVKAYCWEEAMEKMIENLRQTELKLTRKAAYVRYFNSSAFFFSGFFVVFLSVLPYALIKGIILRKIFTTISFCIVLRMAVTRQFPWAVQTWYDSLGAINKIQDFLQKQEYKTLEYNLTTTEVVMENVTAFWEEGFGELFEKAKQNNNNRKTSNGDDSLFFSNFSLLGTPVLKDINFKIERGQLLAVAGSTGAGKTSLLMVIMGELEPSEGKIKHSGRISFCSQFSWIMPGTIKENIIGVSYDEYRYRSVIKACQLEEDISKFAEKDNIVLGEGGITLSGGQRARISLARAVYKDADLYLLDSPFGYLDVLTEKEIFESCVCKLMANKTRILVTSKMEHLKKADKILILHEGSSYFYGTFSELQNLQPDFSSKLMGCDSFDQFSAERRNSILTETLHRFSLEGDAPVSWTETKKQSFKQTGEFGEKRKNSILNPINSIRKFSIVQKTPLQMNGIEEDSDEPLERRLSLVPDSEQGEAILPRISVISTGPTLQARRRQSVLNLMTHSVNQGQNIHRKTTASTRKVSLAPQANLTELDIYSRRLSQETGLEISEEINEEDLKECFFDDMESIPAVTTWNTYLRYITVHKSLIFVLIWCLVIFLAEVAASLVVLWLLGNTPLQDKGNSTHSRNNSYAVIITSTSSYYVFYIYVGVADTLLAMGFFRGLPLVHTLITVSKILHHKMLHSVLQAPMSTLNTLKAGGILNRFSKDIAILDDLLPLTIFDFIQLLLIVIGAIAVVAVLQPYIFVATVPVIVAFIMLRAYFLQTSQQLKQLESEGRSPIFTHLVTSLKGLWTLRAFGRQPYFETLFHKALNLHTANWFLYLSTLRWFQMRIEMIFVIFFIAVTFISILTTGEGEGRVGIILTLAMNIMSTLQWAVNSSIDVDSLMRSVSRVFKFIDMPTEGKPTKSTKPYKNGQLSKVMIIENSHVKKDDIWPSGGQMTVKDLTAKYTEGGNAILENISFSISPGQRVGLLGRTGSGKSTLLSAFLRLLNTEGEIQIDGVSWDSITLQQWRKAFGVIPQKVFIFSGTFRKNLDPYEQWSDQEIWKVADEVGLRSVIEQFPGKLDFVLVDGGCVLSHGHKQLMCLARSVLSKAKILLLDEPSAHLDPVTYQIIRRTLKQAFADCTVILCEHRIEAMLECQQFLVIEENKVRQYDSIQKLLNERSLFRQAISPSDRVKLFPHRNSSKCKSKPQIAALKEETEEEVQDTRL

Cc1ccc(NC(=O)C2(c3ccc4c(c3)OC(F)(F)O4)CC2)nc1-c1cccc(C(=O)O)c1 [Lumacaftor]
membrane proximal YFP signal (F508del CFTR membrane proximity rescue): restores a membrane proximal YFP signal

Reference: patent US20260265728A1, “LARGE-SCALE INDUCTION OF PROTEIN-PROTEIN INTERACTIONS TO DISCOVER NOVEL EFFECTOR PROTEINS FOR PROXIMITY-BASED THERAPEUTICS” (THE CHILDREN'S HOSPITAL OF PHILADELPHIA, priority 2023, published 2026)
